# Reference: the supplement of paper PMC11281043
# Key:
# Details in all cases: exposure: 6-8 hpf to 5 dpf, scored at 6 dpf
# Danio rerio embryo/larva [1] = test: max % larvae with tail defects across tested concentrations; higher = more toxic; extreme values may be limits of the assay
# Danio rerio embryo/larva [2] = test: max % larvae with abnormal position across tested concentrations; higher = more toxic; extreme values may be limits of the assay
# Danio rerio embryo/larva [3] = test: max % larvae with pigmentation defects across tested concentrations; higher = more toxic
# Danio rerio embryo/larva [4] = test: max % larvae with craniofacial defects across tested concentrations; higher = more toxic; extreme values may be limits of the assay
# Danio rerio embryo/larva [5] = test: max % larvae with blood pooling across tested concentrations; higher = more toxic; extreme values may be limits of the assay
# Danio rerio embryo/larva [6] = test: max % larvae with spinal defects across tested concentrations; higher = more toxic; extreme values may be limits of the assay
# Danio rerio embryo/larva [7] = test: max % larvae generally abnormal across tested concentrations; higher = more toxic; extreme values may be limits of the assay
# Danio rerio embryo/larva [8] = test: max % larvae with uninflated swim bladder across tested concentrations; higher = more toxic; extreme values may be limits of the assay
# Danio rerio embryo/larva [9] = test: max % larvae with edema across tested concentrations; higher = more toxic; extreme values may be limits of the assay
SMILES,max % larvae (Danio rerio embryo/larva [1]) [%],max % larvae (Danio rerio embryo/larva [2]) [%],max % larvae (Danio rerio embryo/larva [3]) [%],max % larvae (Danio rerio embryo/larva [4]) [%],max % larvae (Danio rerio embryo/larva [5]) [%],max % larvae (Danio rerio embryo/larva [6]) [%],max % larvae generally abnormal across tested concentrations (Danio rerio embryo/larva [7]) [%],max % larvae (Danio rerio embryo/larva [8]) [%],max % larvae (Danio rerio embryo/larva [9]) [%]
O=C(CC(=O)C(F)(F)C(F)(F)C(F)(F)F)c1cccs1 [(Perfluorobutyryl)-2-thenoylmethane] (max tested concentration (log10 uM): 0.477121),0,0,0,8.33,0,0,8.33,16.7,8.33
C=C(C)C(=O)OCC(F)(F)C(F)(F)C(F)(F)C(F)(F)C(F)(F)C(F)(F)C(F)(F)F [(Perfluoroheptyl)methyl methacrylate] (max tested concentration (log10 uM): 1.60206),0,0,0,0,0,0,0,0,0
CO[Si](C)(CCC(F)(F)C(F)(F)C(F)(F)C(F)(F)C(F)(F)C(F)(F)F)OC [Dimethoxymethyl((perfluorohexyl)ethyl)silane] (max tested concentration (log10 uM): 1.60206),0,0,0,0,0,0,0,0,0
CCOC(=O)CC(=O)C(F)(F)C(F)(F)F [Ethyl pentafluoropropionyl acetate] (max tested concentration (log10 uM): 2),0,0,0,0,0,0,0,0,0
FC(F)(F)C(F)(F)C(F)(F)CI [Heptafluorobutyl iodide] (max tested concentration (log10 uM): 2),0,0,0,0,0,0,0,0,0
OCC(F)(F)C(F)(F)C(F)(F)CO [Hexafluoroamylene glycol] (max tested concentration (log10 uM): 2),0,0,0,0,0,0,0,0,0
O=C(Cl)C(F)(F)C(F)(F)C(F)(F)C(=O)Cl [Hexafluoroglutaryl chloride] (max tested concentration (log10 uM): 2),0,0,0,0,0,0,0,0,0
COC(=O)C(F)(F)C(F)(F)OC(F)(C(F)(F)F)C(F)(F)OC(F)=C(F)F (stereo not drawn) [Methyl perfluoro(3-(1-ethenyloxypropan-2-yloxy)propanoate)] (max tested concentration (log10 uM): 1.60206),0,4.17,0,0,0,0,8.33,0,8.33
COC(=O)C(F)(F)C(F)(F)C(F)(F)C(F)(F)C(F)(F)F [Methyl perfluorohexanoate] (max tested concentration (log10 uM): 2),0,0,0,0,0,0,0,0,0
CCN(CCO)S(=O)(=O)C(F)(F)C(F)(F)C(F)(F)C(F)(F)C(F)(F)C(F)(F)C(F)(F)C(F)(F)F [N-Ethyl-N-(2-hydroxyethyl)perfluorooctane sulfonamide] (max tested concentration (log10 uM): 2),0,0,0,0,0,0,8.33,8.33,8.33
CN(C(=O)C(F)(F)C(F)(F)C(F)(F)F)[Si](C)(C)C [N-Methyl-N-trimethylsilylheptafluorobutyramide] (max tested concentration (log10 uM): 2),0,0,0,0,0,0,0,0,0
NC(=O)C(F)(F)C(F)(F)C(F)(F)C(F)(F)F [Nonafluoropentanamide] (max tested concentration (log10 uM): 2),0,0,0,0,0,0,0,0,0
NC(=O)C(F)(F)C(F)(F)C(F)(F)C(F)(F)C(N)=O [Octafluoroadipamide] (max tested concentration (log10 uM): 2),0,0,0,0,0,0,0,0,0
O=C(Cl)C(F)(F)C(F)(F)C(F)(F)C(F)(F)C(F)(F)C(F)(F)C(F)(F)F [Pentadecafluorooctanoyl chloride] (max tested concentration (log10 uM): 2),12.5,12.5,0,16.7,16.7,12.5,16.7,16.7,16.7
NC(=O)C(F)(F)C(F)(F)F [Pentafluoropropionamide] (max tested concentration (log10 uM): 2),0,0,0,0,0,0,0,0,0
O=C(O)C(F)(F)C(F)(F)C(F)(F)OC(F)(F)F [Perfluoro(4-methoxybutanoic acid)] (max tested concentration (log10 uM): 2),0,0,0,0,0,0,0,0,0

SMILES,max % larvae (Danio rerio embryo/larva [1]) [%],max % larvae (Danio rerio embryo/larva [2]) [%],max % larvae (Danio rerio embryo/larva [3]) [%],max % larvae (Danio rerio embryo/larva [4]) [%],max % larvae (Danio rerio embryo/larva [5]) [%],max % larvae (Danio rerio embryo/larva [6]) [%],max % larvae generally abnormal across tested concentrations (Danio rerio embryo/larva [7]) [%],max % larvae (Danio rerio embryo/larva [8]) [%],max % larvae (Danio rerio embryo/larva [9]) [%]
FC(F)(F)C(F)(F)C(F)(F)C(F)(F)C(F)(F)C(F)(F)I [Perfluoro-1-iodohexane] (max tested concentration (log10 uM): 2),0,0,0,0,0,0,0,0,0
O=S(=O)(O)C(F)(F)C(F)(F)OC(F)(F)C(F)(F)F [Perfluoro-2-ethoxyethanesulfonic acid] (max tested concentration (log10 uM): 2),0,0,0,0,0,0,8.33,16.7,8.33
"O=C(O)C(F)(F)OC(F)(F)C(F)(F)OC(F)(F)C(F)(F)OC(F)(F)F [Perfluoro-3,6,9-trioxadecanoic acid] (max tested concentration (log10 uM): 2)",30,25,0,40,40,20,70,100,45
"O=C(O)C(F)(F)OC(F)(F)C(F)(F)OC(F)(F)C(F)(F)C(F)(F)C(F)(F)F [Perfluoro-3,6-dioxadecanoic acid] (max tested concentration (log10 uM): 2)",6.25,31.2,0,75,50,0,68.8,62.5,56.2
"O=C(O)C(F)(F)OC(F)(F)C(F)(F)OC(F)(F)F [Perfluoro-3,6-dioxaheptanoic acid] (max tested concentration (log10 uM): 2)",0,0,0,0,0,0,4.17,0,4.17
"O=C(O)C(F)(F)OC(F)(F)C(F)(F)OC(F)(F)C(=O)O [Perfluoro-3,6-dioxaoctane-1,8-dioic acid] (max tested concentration (log10 uM): 2)",0,0,0,0,0,0,0,0,0
O=C(O)C(F)(F)C(F)(F)C(F)(F)OC(F)(C(F)(F)F)C(F)(F)F [Perfluoro-4-isopropoxybutanoic acid] (max tested concentration (log10 uM): 2),0,0,0,0,0,0,0,0,0
O=S(=O)(O)C(F)(F)C(F)(F)C(F)(F)C(F)(F)F [Perfluorobutanesulfonic acid] (max tested concentration (log10 uM): 2),0,0,0,0,0,0,0,0,0
O=C(O)C(F)(F)C(F)(F)C(F)(F)F [Perfluorobutanoic acid] (max tested concentration (log10 uM): 2),0,0,0,20,0,0,20,20,20
O=C(O)C(F)(F)C(F)(F)C(F)(F)C(F)(F)C(F)(F)C(F)(F)F [Perfluoroheptanoic acid] (max tested concentration (log10 uM): 2),0,0,0,0,0,0,8.33,16.7,8.33
O=C(Cl)C(F)(F)C(F)(F)C(F)(F)C(F)(F)C(F)(F)C(F)(F)F [Perfluoroheptanoyl chloride] (max tested concentration (log10 uM): 2),8.33,4.17,0,16.7,0,8.33,16.7,16.7,16.7
O=C(O)C(F)(F)C(F)(F)C(F)(F)C(F)(F)C(=O)O [Perfluorohexanedioic acid] (max tested concentration (log10 uM): 2),0,0,0,0,0,0,0,0,0
O=C(O)C(F)(F)C(F)(F)C(F)(F)C(F)(F)C(F)(F)F [Perfluorohexanoic acid] (max tested concentration (log10 uM): 2),0,0,0,0,0,0,0,0,0
NC(=O)C(F)(F)C(F)(F)C(F)(F)C(F)(F)C(F)(F)C(F)(F)C(F)(F)F [Perfluorooctanamide] (max tested concentration (log10 uM): 2),0,0,0,0,0,0,0,0,0
N=C(N)C(F)(F)C(F)(F)C(F)(F)C(F)(F)C(F)(F)C(F)(F)C(F)(F)F [Perfluorooctanamidine] (max tested concentration (log10 uM): 1),0,0,0,0,16.7,0,8.33,0,4.17
O=C(O)C(F)(F)C(F)(F)C(F)(F)C(F)(F)C(F)(F)C(F)(F)C(F)(F)F [Perfluorooctanoic acid] (max tested concentration (log10 uM): 2),4.17,8.33,0,0,0,0,16.7,16.7,16.7
